Where two headings read alike, the source gives them in different places.
Tests used:
Type in all cases: cell-based
[1] = test system: ZR-75-1 (non-TNBC cell line); experiment: MTT cell viability assay, ZR-75-1; conditions: read-out: IC50 ± SD, ZR-75-1
Description: (§1) The following cancer and non-cancer cell lines were used in the initial cytotoxicity screening of the TPH104 compounds: triple negative breast cancer (TNBC): MDA-MB468, MDA-MB 231, and BT-20; non-TNBC: MCF-7 and ZR-75-1; ovarian: Ov2008; prostate: DU145; colon: HCT-116, S1, and LOVO; lung: H460; normal kidney: HEK-293; normal breast: HMEC; and normal colon: CRL-1459. All cells were cultured in Dulbecco's modified Eagle medium (DMEM), supplemented with 10% fetal bovine serum (FBS), and 1% penicillin/streptomycin (P/S). Cells were allowed to grow as adherent monolayers in T25 flasks in a humidified incubator with 5% CO2 at 37° C. for a period of 24 h, unless otherwise specified for certain experiments.
(§2) The MTT assay was used to determine the cytotoxicity of all of the compounds. Briefly, in a 96-well flat-bottom cell culture plate, the cells were seeded at a density between 3-5×10^3 cells/well (180 μl in each well) and incubated for 24 h (a hemocytometer was used for cell counting). The next day, the cells were incubated with different concentrations of the nine compounds (0, 0.1, 0.3, 1, 3, 10, 30, and 100 μM) for 72 h. After 72 h, 20 μl of 5 mg/ml of 3-(4,5-dimethylthiazol-2-yl)-2,5-diphenyltetrazolium bromide (MTT) was added to the plate and incubated with the cells for 3 h at 37° C. In this experiment, the living cells will reduce the soluble MTT dye to non-soluble purple formazan crystals. Following incubation, the media containing MTT removed via suction and 100 μL of 100% dimethyl sulfoxide (DMSO) was added to dissolve the formazan crystals. Subsequently, the plate was shaken for 2 minutes and the absorbance was measured at a wavelength of 570 nm using a SpectraMax iD3 Multi-Mode Microplate Reader (Molecular Devices, Sunnyvale, CA). The IC50 values of each compound were calculated and used to determine the selectivity ratio (IC50 in normal cells/IC50 in cancer cells) of each compound as previously described. Based on the results obtained from these experiments, the compound TPH104, which had the lowest IC50 value, was selected for further experiments.

[2] = test system: normal human mammary epithelial cells (HMEC); experiment: MTT cell viability assay, HMEC
Description: as §1, §2

BT-20 (TNBC cell line) = experiment: MTT cell viability assay, BT-20
Description: as §1, §2

TNBC cell lines = experiment: Cytotoxicity screening (MTT), TNBC cell lines overall; conditions: TNBC cell lines overall
Text: To this end, several commercial databases were searched, and 17 similar molecules from the VitasM database were retrieved with considerable structural diversity in terms of the substitution on the aryl ring A attached to the thienopyrimidine scaffold and aryl ring B attached to hydrazino moiety. Further, the biological evaluation of the 17 molecules sheds light on the structural features deemed important for the selective cytotoxicity shown by this class of molecules. With this understanding, the 17 molecules were subjected to a screening protocol comprising of two TNBC, two non-TNBC, and one normal cell lines.
as §1, §2

[3] = test system: EMT and Wnt/β-catenin signaling proteins in BT-20 cells; experiment: Western blot, EMT and Wnt/β-catenin proteins, BT-20
Description: The TNBC cells were seeded in a culture flask and incubated for 24 h. The cells were then incubated with different concentrations of the lead compounds and re-incubated for an additional 12 or 24 h. […] The bicinchoninic acid (BCA) was used to determine protein concentration in the cell extracts (G-BIOSCIENCES, St. Louis, MO, USA). […] The membrane was blocked using 5% milk in Tris-buffered Tween 20 saline for 30 minutes. The membrane was then incubated overnight with primary antibodies against Bak, Bax, Bcl-2, caspase9, caspase 3, caspase 7, PARP, cytochrome c, N-cadherin, E-cadherin, c-Myc, dishevelled segment polarity protein 3 (DVL3), dishevelled segment polarity protein 2 (DVL2), Vimentin, mitogen-activated protein kinase kinase (MAPKK also known as MEK1/2), β-catenin, low-density lipoprotein receptor-related protein 6 (LRP6), receptor-interacting protein kinase (RIP), phosphorylated RIP (p-RIP), mixed lineage kinase domain like pseudokinase(MLKL), Caspase 8, light chain 3 (LC3), lysosomal-associated membrane protein 1 (LAMP1), unc-51 like autophagy activating kinase 1 (ULK1), ras associated protein 7 (Rab7), ras associated protein 5 (Rab5), Beclin 1, mechanistic target of rapamycin (mTOR), tumor necrosis factor alpha (TNF-α), tumor necrosis factor receptor 1 (TNFR1), tumor necrosis factor receptor 2 (TNFR2), Fas-associated protein with death domain (FADD), Fas ligand (Fas), TNF-related apoptosis-inducing ligand (TRAIL), death receptor 5 (DR5), Tumor necrosis factor receptor type 1-associated DEATH domain (TRADD), receptor-interacting protein kinase 3 (RIP3), β-actin or GAPDH in 1:1000 dilution in 5% milk or 5% BSA at 4° C. Horseradish peroxidase-labeled (HRP) anti-rabbit or anti-mouse secondary antibodies (1:5,000 dilution) were added and incubated the next day for an additional 1 h. A ChemiDoc™ MP System imaging system from Bio-Rad (Hercules, CA, USA) was used for blots reading. Blots were used to obtain the protein bands, followed by quantification of the bands using image J software (NIH, Bethesda, MD, USA). All of the data were expressed as the ratio of β-actin or GAPDH.

[4] = target: T1, P-gp (ABCB1), DU145TXR prostate cancer cells (Homo sapiens, UniProt P08183); experiment: Calcein AM assay for P-gp modulation; conditions: concentration dependent
T1 construct: endogenous in cells; host or cells: DU145TXR prostate cancer cells
Description: Ability of P-gp to efflux Calcein AM is used to identify the molecules which interfere with P-gp transporter activity. About 10000 cells of DU145TXR prostate cancer cells were seeded in each well in 96 well plates and allowed to grow until confluency for 4-5 days. Then media was replaced with phenol red free RPMI media and cells were treated with indicated concentrations of TPH104s and 1 μg/mL of Calcein AM. Fluorescence measured after 60 minutes with excitation at 485/20 nm and at emission 535/20 nm using the BioTek Cytation 5 imaging multi-mode reader (Bio-Tek, Winooski, VT). DMSO (0.5% v/v) was used as the vehicle, and 15 μM of Pgp inhibitor SMU 45 was used as a positive control. (n=6 in each trial).

T1 sequence (P08183 whole entry): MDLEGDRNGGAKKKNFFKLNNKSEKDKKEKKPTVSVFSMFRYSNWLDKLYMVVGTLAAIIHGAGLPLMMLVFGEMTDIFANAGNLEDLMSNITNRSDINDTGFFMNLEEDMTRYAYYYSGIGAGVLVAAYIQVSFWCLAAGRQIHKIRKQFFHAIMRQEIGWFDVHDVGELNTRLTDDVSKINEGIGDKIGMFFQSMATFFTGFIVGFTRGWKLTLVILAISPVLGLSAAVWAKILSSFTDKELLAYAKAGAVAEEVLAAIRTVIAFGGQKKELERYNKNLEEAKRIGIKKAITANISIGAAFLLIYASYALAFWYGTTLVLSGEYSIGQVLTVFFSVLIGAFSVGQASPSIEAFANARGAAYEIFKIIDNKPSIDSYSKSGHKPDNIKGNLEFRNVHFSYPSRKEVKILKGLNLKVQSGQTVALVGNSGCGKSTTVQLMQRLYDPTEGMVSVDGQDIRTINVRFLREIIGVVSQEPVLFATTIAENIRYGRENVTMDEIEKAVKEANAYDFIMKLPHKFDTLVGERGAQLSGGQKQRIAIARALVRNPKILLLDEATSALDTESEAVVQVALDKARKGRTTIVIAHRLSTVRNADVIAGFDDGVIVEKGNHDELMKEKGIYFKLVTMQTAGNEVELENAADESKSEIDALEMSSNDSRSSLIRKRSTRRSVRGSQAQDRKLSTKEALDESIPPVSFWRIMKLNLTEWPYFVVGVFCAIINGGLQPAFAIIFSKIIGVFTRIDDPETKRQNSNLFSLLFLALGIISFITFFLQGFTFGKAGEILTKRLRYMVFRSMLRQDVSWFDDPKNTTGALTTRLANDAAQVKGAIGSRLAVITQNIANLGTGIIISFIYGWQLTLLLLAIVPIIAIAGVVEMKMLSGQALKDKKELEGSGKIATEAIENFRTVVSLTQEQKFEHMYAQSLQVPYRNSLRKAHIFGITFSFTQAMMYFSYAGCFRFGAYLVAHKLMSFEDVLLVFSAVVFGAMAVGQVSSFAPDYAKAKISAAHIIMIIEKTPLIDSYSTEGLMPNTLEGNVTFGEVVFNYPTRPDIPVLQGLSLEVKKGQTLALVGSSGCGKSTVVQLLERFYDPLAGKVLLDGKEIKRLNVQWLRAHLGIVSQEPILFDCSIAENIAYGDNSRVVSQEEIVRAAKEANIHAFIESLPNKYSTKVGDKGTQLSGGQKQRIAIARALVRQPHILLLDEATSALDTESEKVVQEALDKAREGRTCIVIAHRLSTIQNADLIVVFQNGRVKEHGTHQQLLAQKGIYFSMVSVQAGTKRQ

COc1ccc(O)c(/C=N/Nc2ncnc3scc(-c4ccc(C)cc4)c23)c1 [TPH104]
IC50 ([1]; 72 h): 8.56 ± 1.95 µM | IC50 ([1]; Homo sapiens, ZR-75-1, 72 h): 8.6 µM | selectivity fold on TNBC cells compared to normal human mammary epithelial cells [2]: more than 100 fold | IC50 for HMEC, fold higher than the IC50 values for TNBC cells ([2]; HMEC vs TNBC cells): 330-411 fold | IC50 ([2]; Homo sapiens, HMEC, MTT, 72 h, Normal, read-out: IC50 ± SD, HMEC): 82.3 µM | percent cell survival, TPH104 + rapamycin vs TPH104 only (BT-20 (TNBC cell line); + 100 nM rapamycin): significant increase | percent BT-20 survival, TPH104 + 3-methyladenine (BT-20 (TNBC cell line); + 0.5 mM): no significant change | IC50 (BT-20 (TNBC cell line); Homo sapiens, BT-20, MTT, 72 h, TNBC): 0.29 µM | IC50 (TNBC cell lines): < 1 µM | expression levels of DVL3, DVL2, vimentin, and MEK1/2 ([3]; 2 μM and 5 μM): significantly decreased | expression of N-cadherin ([3]; 2 μM and 5 μM): significantly decreased | expression of c-Myc ([3]; 0.5, 1, 2, and 5 μM): significantly decreased | expression of β-catenin or LRP6 ([3]; 0.5, 1, 2, and 5 μM): did not significantly alter | expression of E-cadherin ([3]; 1, 2, or 5 μM): significantly increased | efflux function of ABCB1 [4]: blocking the efflux function
